Source: patent US11098056B2, “UDP glycosyltransferase inhibitors and methods of use” (GENZYME CORPORATION, priority 2018, dated 2021)

Target: T1, UGT8 (Homo sapiens, UniProt Q16880)
T1 construct: host or cells: OE19 cells
T1 sequence (Q16880 21-541): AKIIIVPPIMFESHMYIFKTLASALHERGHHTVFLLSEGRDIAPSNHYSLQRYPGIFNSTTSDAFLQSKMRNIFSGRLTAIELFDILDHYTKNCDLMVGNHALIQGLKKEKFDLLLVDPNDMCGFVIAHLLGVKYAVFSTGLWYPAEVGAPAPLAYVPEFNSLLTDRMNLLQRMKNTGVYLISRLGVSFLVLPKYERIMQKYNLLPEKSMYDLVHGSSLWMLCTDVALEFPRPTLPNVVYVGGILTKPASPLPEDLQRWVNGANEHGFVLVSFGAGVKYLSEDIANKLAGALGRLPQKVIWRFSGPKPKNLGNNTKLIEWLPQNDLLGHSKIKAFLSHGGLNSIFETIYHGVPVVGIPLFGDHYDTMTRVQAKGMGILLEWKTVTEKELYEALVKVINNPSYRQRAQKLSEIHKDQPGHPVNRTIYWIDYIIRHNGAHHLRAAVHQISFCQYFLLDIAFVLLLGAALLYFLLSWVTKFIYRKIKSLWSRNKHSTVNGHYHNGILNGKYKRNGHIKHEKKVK
Experiment: In vitro sulfatide (SFT) synthesis inhibition in OE19 cells, LC-MS/MS readout
Assay type: cell-based
Details: 72 hr, sulfatide by LC-MS/MS, read-out: Potency range (IC50, In-vitro SFT)
Protocol: For medium throughput screening, library compounds were dispensed into CellBIND 384 well plates to a final concentration of 10 μM. OE19 cells (Sigma) were grown in to 70-90% confluency in RPMI 1640+L-glutamine and […]; were trypsinized to achieve suspension and were aliquoted at 2,500 cells/well, total well volume 50 μl. Plates were incubated 72 hr at 37° C. in 5% CO2; supernatant was removed and plates were dried, heat-sealed and stored at −20° C. until analysis.
For IC50 determinations, the same procedure was followed except that test compounds were added to the plate as dose-downs in triplicate to yield concentration response curves.
Mass Spectrometer Analysis of Sulfatide (SFT):
Assay plates were thawed and 85 μl mobile phase B (5 mM ammonium formate^+0.2% formic acid in 50:50 methanol:acetonitrile). Fifteen μl 20 ng/ml C17 SFT in mobile phase B was added as an internal standard.
SFT was analyzed using an Applied Biosystems API-4000 triple quad mass spectrometer interfaced to a Thermo Scientific Multiplex system (LX-4) equipped with four pumps. Chromatography of OE19 cell samples or 2B5-mouse cells treated with compounds was performed using a Waters Acquity UPLC BEH C8 2.1×50 mm column with 1.7 um particle size. The chromatography was performed using the following mobile phases. Mobile phase A (MPA): 0.2% formic acid and 5 mM ammonium formate in deionized water; MPB: see above. The LC method was run in isocratic mode for 4 sequentially running columns using 95% MPB and 5% MPA with flow rate of 1 ml/min and a column temperature of 60° C.
The Triple quad mass spectrometer was run in Negative Ionization mode monitoring the following MRM transitions and using the following parameters:
Electrospray voltage was […], and source temperature was 550° C.

| Compound | IC50 [nM] |
| --- | --- |
| CNC(=O)c1csc2c(C(F)(F)F)cc(OC3CN(C(=O)OCCOC(F)(F)F)C3)nc12 [Example 256, 2-(Trifluoromethoxy)ethyl 3-((3-(methylcarbamoyl)-7-(trifluoromethyl)thieno[3,2-b]pyridin-5-yl)oxy)azetidine-1-carboxylate] | < 100 |
| CNC(=O)c1csc2c(C(F)(F)F)cc(OC3(C)CN(C(=O)OC(C)(C)C)C3)nc12 [Example 269, tert-Butyl 3-methyl-3-((3-(methylcarbamoyl)-7-(trifluoromethyl)thieno[3,2-b]pyridin-5-yl)oxy)azetidine-1-carboxylate] | 100 to 1000 |
| COC(=O)c1csc2c(C(F)(F)F)cc(C3CCN(C(=O)OC(C)(C)C)CC3)nc12 [Example 274, Methyl 5-(1-(tert-butoxycarbonyl)piperidin-4-yl)-7-(trifluoromethyl)thieno[3,2-b]pyridine-3-carboxylate] | 100 to 1000 |
| CNC(=O)c1csc2c(C(F)(F)F)cc(N3CCC(NC(=O)OCC(C)C)CC3)nc12 [Example 297, Isobutyl (1-(3-(methylcarbamoyl)-7-(trifluoromethyl)thieno[3,2-b]pyridin-5-yl)piperidin-4-yl) carbamate] | < 100 |
| CNC(=O)c1csc2c(C(F)(F)F)cc(N3CC(NC(=O)OC(C)(C)C)C3)nc12 [Example 300, tert-Butyl (1-(3-(methylcarbamoyl)-7-(trifluoromethyl)thieno[3,2-b]pyridin-5-yl)azetidin-3-yl)carbamate] | < 100 |
| CNC(=O)c1csc2c(C(F)(F)F)cc(N3CC4(CN(C(=O)OC5COC5)C4)C3)nc12 [Example 339, Oxetan-3-yl 6-(3-(methylcarbamoyl)-7-(trifluoromethyl)thieno[3,2-b]pyridin-5-yl)-2,6-diazaspiro[3.3]heptane-2-carboxylate] | < 100 |
| CNC(=O)c1csc2c(C(F)(F)F)cc(N3CC4(CN(C(=O)OC(C)CC#N)C4)C3)nc12 (stereo not drawn) [Example 350, 1-Cyanopropan-2-yl 6-(3-(methylcarbamoyl)-7-(trifluoromethyl)thieno[3,2-b]pyridin-5-yl)-2,6-diazaspiro[3.3]heptane-2-carboxylate] | < 100 |
| CNC(=O)c1csc2c(C(F)(F)F)cc(N3CCC(OCCN4CCC(F)(F)C4)CC3)nc12 [Example 361, 5-(4-(2-(3,3-Difluoropyrrolidin-1-yl)ethoxy)piperidin-1-yl)-N-methyl-7-(trifluoromethyl)thieno[3,2-b]pyridine-3-carboxamide] | < 100 |
| CNC(=O)c1csc2c(C(F)(F)F)cc(O[C@@H]3CCN(C(=O)OC(C)(C)C)[C@H](C)C3)nc12 [Example 373, tert-Butyl (2R,4R)-2-methyl-4-((3-(methylcarbamoyl)-7-(trifluoromethyl)thieno[3,2-b]pyridin-5-yl)oxy)piperidine-1-carboxylate] | < 100 |
| CNC(=O)c1csc2c(C(F)(F)F)c(C)c(OC3CCN(C(=O)OC(C)(C)C)CC3)nc12 [Example 389, tert-Butyl 4-((6-methyl-3-(methylcarbamoyl)-7-(trifluoromethyl)thieno[3,2-b]pyridin-5-yl)oxy)piperidine-1-carboxylate] | < 100 |
| CNC(=O)c1csc2c(C(F)(F)F)c(C)c(OC3CCN(C(=O)OCCOC(F)(F)F)CC3)nc12 [Example 390, 2-(Trifluoromethoxy)ethyl 4-((6-methyl-3-(methylcarbamoyl)-7-(trifluoromethyl)thieno[3,2-b]pyridin-5-yl)oxy)piperidine-1-carboxylate] | < 100 |
| CNC(=O)c1c(C)sc2c(C(F)(F)F)cc(N3CCN(CC(=O)NC(C)C)CC3)nc12 [Example 408, 5-(4-(2-(Isopropylamino)-2-oxoethyl)piperazin-1-yl)-N,2-dimethyl-7-(trifluoromethyl)thieno[3,2-b]pyridine-3-carboxamide] | 100 to 1000 |
| CNC(=O)c1c(C)sc2c(C(F)(F)F)cc(N3CCC(OC(=O)NCC4CC4)CC3)nc12 [Example 415, 1-(2-Methyl-3-(methylcarbamoyl)-7-(trifluoromethyl)thieno[3,2-b]pyridin-5-yl)piperidin-4-yl (cyclopropylmethyl)carbamate] | < 100 |
| CC(C)NC(=O)c1csc2c(C(F)(F)F)cc(N3CCC(NC4CCC(C(F)(F)F)CC4)C3)nc12 (stereo not drawn) [Example 419, N-Isopropyl-7-(trifluoromethyl)-5-(3-((4-(trifluoromethyl)cyclohexyl)amino)pyrrolidin-1-yl)thieno[3,2-b]pyridine-3-carboxamide] | > 1000 |
| CCNC(=O)c1csc2c(C3CC3)cc(N3CCN(CC(=O)NC(C)C)CC3)nc12 [Example 420, 7-Cyclopropyl-N-ethyl-5-(4-(2-(isopropylamino)-2-oxoethyl)piperazin-1-yl)thieno[3,2-b]pyridine-3-carboxamide] | > 1000 |
| CC(C)(C)NC(=O)OC1CCN(c2cc(C(F)(F)F)c3scc(C(=O)N4CCC4)c3n2)CC1 [Example 422, 1-(3-(Azetidine-1-carbonyl)-7-(trifluoromethyl)thieno[3,2-b]pyridin-5-yl)piperidin-4-yl tert-butylcarbamate] | 100 to 1000 |
| COC(=O)c1csc2c(C(F)(F)F)cc(N3CCC(OC(=O)NCC4CC4)CC3)nc12 [Example 428, Methyl 5-(4-(((cyclopropylmethyl)carbamoyl)oxy)piperidin-1-yl)-7-(trifluoromethyl)thieno[3,2-b]pyridine-3-carboxylate] | < 100 |
| CNC(=O)c1csc2c(Cl)cc(N3CCC(OC(=O)NCC4CC4)CC3)nc12 [Example 449, 1-(7-Chloro-3-(methylcarbamoyl)thieno[3,2-b]pyridin-5-yl)piperidin-4-yl (cyclopropylmethyl)carbamate] | < 100 |
| CNC(=O)c1csc2c(C(F)F)cc(N3CCC(OC(=O)NC(C)C)CC3)nc12 [Example 452, 1-(7-(Difluoromethyl)-3-(methylcarbamoyl)thieno[3,2-b]pyridin-5-yl)piperidin-4-yl isopropylcarbamate] | < 100 |
| CNC(=O)c1csc2c(C(F)(F)F)cc(N3CCC(OC(=O)NCC4CC4)CC3)nc12 [Example 474, 1-(3-(Methylcarbamoyl)-7-(trifluoromethyl)thieno[3,2-b]pyridin-5-yl)piperidin-4-yl (cyclopropylmethyl)carbamate] | < 100 |
| CNC(=O)c1csc2c(C(F)(F)F)cc(N3CC[C@@H](OC(=O)NC(C)C)[C@H](F)C3)nc12 [Example 495, (3R,4R)-3-Fluoro-1-(3-(methylcarbamoyl)-7-(trifluoromethyl)thieno[3,2-b]pyridin-5-yl)piperidin-4-yl isopropylcarbamate] | < 100 |
| CNC(=O)c1csc2c(C(F)(F)F)cc(N3CCC(NC(=O)OCCC#N)CC3)nc12 [Example 505, 2-Cyanoethyl (1-(3-(methylcarbamoyl)-7-(trifluoromethyl)thieno[3,2-b]pyridin-5-yl)piperidin-4-yl)carbamate] | < 100 |
| CNC(=O)c1csc2c(C(F)(F)F)cc(N3CCC(NC(=O)OCCOC(F)(F)F)CC3)nc12 [Example 520, 2-(Trifluoromethoxy)ethyl (1-(3-(methylcarbamoyl)-7-(trifluoromethyl)thieno[3,2-b]pyridin-5-yl)piperidin-4-yl)carbamate] | < 100 |
| CNC(=O)c1csc2c(C(F)(F)F)cc(N3CCN(Cc4nc(C(C)C)cs4)CC3)nc12 [Example 528, 5-(4-((4-Isopropylthiazol-2-yl)methyl)piperazin-1-yl)-N-methyl-7-(trifluoromethyl)thieno[3,2-b]pyridine-3-carboxamide] | < 100 |
